Laboratory results from US20080014162A1, “Method to treat skin in need of a calmative using at least one C-Glycoside derivative” (L'OREAL, priority 2006, published 2008).

What was measured:
[1] = tested on: interleukin-8 secreted by normal human epidermal keratinocytes (NHEK) after stimulation with retinol; assay: Assay of IL8 + stimulation with retinol in normal human epidermal keratinocytes (anti-irritant effect); conditions: for % blank (+retinol): IL8 as % of blank (+retinol); for IL8: 24 hours at 37° C.
Method: This test allows evaluation of the anti-irritant potential of various molecules, on a human keratinocyte (NHEK) cell line. In this test, an irritant situation is mimicked by exacerbating the production of IL-8 by the NHEKs by addition of retinol to the culture medium, Il-8 being involved in the initiation of keratinocyte irritation. Next, the anti-irritant effect of a C-glycoside compound is measured by means of its inhibitory action with respect to this exacerbated production.
Normal human epidermal keratinocytes are incubated in the presence of 10^−6 M retinol for 24 hours at 37° C. In response to the retinol, the production of the chemotactic agent interleukine 8 (IL-8) is measured via enzymatic assay using an assay kit (Elisa D8050) sold by the company R&D. The absorbance values are measured with a microplate reader (MRX/Dynatech) according to the procedures supplied with the assay kit.
A control test is also performed with dexamethasone, which is a reference calmative.
The results are expressed as a percentage of the control values after subtracting the background noise and as a percentage of inhibition of these values obtained in the presence of the compounds.

[2] = tested on: interleukin-8 secreted by normal human epidermal keratinocytes (NHEK); assay: Assay of IL8 without stimulation in normal human epidermal keratinocytes; format: cell-based; conditions: concentration 2%
From the text: Dermatol., 102: 915-922 (1994)].

[3] = NHEK + 10^−6 M retinol, 24 hours, concentration 2%

| Structure (SMILES) | % blank (+retinol) [1, 3] | IL8 ([1]; NHEK + 10^−6 M retinol, concentration 2%) | % viability [1, 3] | effect on the irritant reaction of retinol ([1]; conclusion in words from the IL8 assay in NHEK) | % blank ([2]; IL8 as % of blank) | % viability [2] | IL8 [2] | % blank (+retinol) ([1]; NHEK + 10^−6 M retinol, 24 hours, concentration 10^−7M) | IL8 ([1]; NHEK + 10^−6 M retinol, concentration 10^−7M) |
| --- | --- | --- | --- | --- | --- | --- | --- | --- | --- |
| CC(O)C[C@@H]1OC[C@@H](O)[C@H](O)[C@H]1O (stereo partly drawn) [C-β-D-xylopyranoside-2-hydroxypropane] | 60% | 124.4 pg/mL | 104% | reduces the irritant reaction of retinol | 53% | 97% | 145.2 pg/mL |  |  |
| C[C@@H]1C[C@H]2[C@@H]3CCC4=CC(=O)C=C[C@]4(C)[C@@]3(F)[C@@H](O)C[C@]2(C)[C@@]1(O)C(=O)CO [Dexamethasone, reference compound] |  |  |  |  |  |  |  | 57% | 117.7 pg/mL |
